{"source": "patent US20100152215A1", "about": "“METHODS OF IDENTIFYING ACTIVATORS OF LYN KINASE” (MELIOR PHARMACEUTICALS I, INC., priority 2007, published 2010)", "type_in_all_cases": "biochemical", "key": {"[1]": {"biological_target": "unphosphorylated Lyn kinase (Homo sapiens, UniProt P07948)", "sequence (P07948 whole entry)": "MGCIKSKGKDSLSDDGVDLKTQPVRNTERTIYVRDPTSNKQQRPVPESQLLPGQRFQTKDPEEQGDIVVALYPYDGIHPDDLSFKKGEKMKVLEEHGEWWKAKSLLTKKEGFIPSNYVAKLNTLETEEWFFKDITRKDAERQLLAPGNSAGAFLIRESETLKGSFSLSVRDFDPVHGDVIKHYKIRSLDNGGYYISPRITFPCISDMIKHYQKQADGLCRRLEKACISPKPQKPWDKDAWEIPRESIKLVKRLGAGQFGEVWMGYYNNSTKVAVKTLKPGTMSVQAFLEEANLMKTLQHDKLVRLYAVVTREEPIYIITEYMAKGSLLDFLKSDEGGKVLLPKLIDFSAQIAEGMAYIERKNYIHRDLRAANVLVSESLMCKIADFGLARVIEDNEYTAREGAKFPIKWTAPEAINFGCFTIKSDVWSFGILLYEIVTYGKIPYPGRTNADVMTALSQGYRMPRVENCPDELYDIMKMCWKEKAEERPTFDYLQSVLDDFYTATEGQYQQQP", "test": "Z'-LYTE Kinase Assay Kit-Tyr Peptide-2 Lyn kinase activation assay", "conditions": "for Fold-Activation: 30 μM vs DMSO; for % Phosphorylation of Substrate: 30 μM", "description": "The following example was conducted to further optimize assay conditions for detecting Compound 102-mediated activation of Lyn kinase. The assays describe below utilize the Z′-LYTE™ Kinase Assay Kit-Tyr Peptide (Invitrogen, Carlsbad, Calif.). These assay systems were originally developed to detect inhibitors of various tyrosine kinases.\nThe assay system used was a non-radiometric assay utilizing the Z′-LYTE™ Kinase Assay Kit-Tyr Peptide-2 (Invitrogen, Carlsbad, Calif.) for detecting activity of Lyn kinase. Buffer components were altered as described below. The lyn kinase protein used in these studies was the unphosphorylated form of the protein. Concentrations of this unphosphorylated lyn protein ranged from 25 ng/mL to 300 ng/mL. The preincubation step was lengthened from 30 minutes to 60 minutes.\nThe Invitrogen Reaction Buffer was used for all studies. The following additions were made to this Reaction Buffer and tested separately and compared to Reaction Buffer alone: Modification 1: Reaction Buffer with 0.1% BSA; Modification 2: Reaction Buffer with 1 mM dithiothreitol; Modification 3: Reaction Buffer with 0.01% BSA, 1 mM dithiothreitol; and Modification 4: Reaction Buffer with 0.1% β-mercaptoethanol."}, "[2]": {"biological_target": "cRAF (Homo sapiens, UniProt P04049)", "sequence (P04049 whole entry, species assumed)": "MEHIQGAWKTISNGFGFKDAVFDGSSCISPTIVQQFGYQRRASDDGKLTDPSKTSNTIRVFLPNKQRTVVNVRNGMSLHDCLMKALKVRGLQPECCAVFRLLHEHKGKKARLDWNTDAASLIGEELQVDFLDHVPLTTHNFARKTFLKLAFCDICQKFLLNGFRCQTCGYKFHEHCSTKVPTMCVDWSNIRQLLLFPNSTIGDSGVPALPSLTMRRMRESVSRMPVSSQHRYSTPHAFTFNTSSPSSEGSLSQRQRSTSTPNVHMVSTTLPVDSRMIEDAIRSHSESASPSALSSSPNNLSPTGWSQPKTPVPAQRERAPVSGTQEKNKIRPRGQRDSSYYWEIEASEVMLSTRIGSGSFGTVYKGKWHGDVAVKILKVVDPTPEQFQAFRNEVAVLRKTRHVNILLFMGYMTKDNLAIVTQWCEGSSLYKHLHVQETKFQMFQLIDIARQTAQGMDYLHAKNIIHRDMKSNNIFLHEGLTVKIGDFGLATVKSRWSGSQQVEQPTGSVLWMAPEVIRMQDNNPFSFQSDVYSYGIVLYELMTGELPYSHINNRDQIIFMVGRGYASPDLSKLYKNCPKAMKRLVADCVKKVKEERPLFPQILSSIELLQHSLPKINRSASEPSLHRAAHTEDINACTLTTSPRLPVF", "test": "kinase screen for inhibition or activation", "conditions": "10 μM", "description": "(§1) A kinase screen was conducted in which Compound 102 (10 μM) was screened against 49 kinases for inhibition or activation. Any kinase that was activated or inhibited by at least 20% was considered to be a significant effect. Of the 49 kinases screened, Lyn kinase was activated by 51%. In a repeat experiment, Lyn kinase activity was increased by 57%."}, "[3]": {"test_system": "AMPK", "test": "kinase screen for inhibition or activation", "conditions": "10 μM, positive = activation, negative = inhibition", "description": "as §1"}, "[4]": {"biological_target": "CaMK4 (Homo sapiens, UniProt Q16566)", "sequence (Q16566 whole entry, species assumed)": "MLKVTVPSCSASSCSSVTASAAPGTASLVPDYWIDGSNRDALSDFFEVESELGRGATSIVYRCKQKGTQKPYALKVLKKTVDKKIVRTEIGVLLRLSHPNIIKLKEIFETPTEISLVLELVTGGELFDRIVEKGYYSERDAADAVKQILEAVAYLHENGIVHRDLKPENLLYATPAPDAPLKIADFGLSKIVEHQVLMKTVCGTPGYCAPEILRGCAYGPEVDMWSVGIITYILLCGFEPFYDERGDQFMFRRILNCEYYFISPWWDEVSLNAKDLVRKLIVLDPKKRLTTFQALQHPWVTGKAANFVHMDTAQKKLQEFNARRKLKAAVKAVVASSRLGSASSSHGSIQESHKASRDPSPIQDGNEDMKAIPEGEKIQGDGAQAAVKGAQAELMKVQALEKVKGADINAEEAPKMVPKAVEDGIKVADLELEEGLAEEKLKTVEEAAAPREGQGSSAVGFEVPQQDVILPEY", "test": "kinase screen for inhibition or activation", "conditions": "10 μM", "description": "as §1"}, "[5]": {"biological_target": "RSK1 (Homo sapiens, UniProt Q15418)", "test": "kinase screen for inhibition or activation", "conditions": "10 μM", "description": "as §1"}, "[6]": {"biological_target": "PKA (Homo sapiens, UniProt P17612)", "test": "kinase screen for inhibition or activation", "conditions": "10 μM", "description": "as §1"}, "[7]": {"biological_target": "Flt3 (Homo sapiens, UniProt P36888)", "test": "kinase screen for inhibition or activation", "conditions": "10 μM", "description": "as §1"}, "[8]": {"biological_target": "Syc (Homo sapiens, UniProt P43405)", "test": "kinase screen for inhibition or activation", "conditions": "10 μM", "description": "as §1"}, "[9]": {"biological_target": "Pim2 (Homo sapiens, UniProt Q9P1W9)", "test": "kinase screen for inhibition or activation", "conditions": "10 μM", "description": "as §1"}, "[10]": {"biological_target": "Lyn (Homo sapiens, UniProt P07948)", "sequence (P07948 whole entry)": "as the sequence (P07948 whole entry) above", "test": "kinase screen for inhibition or activation", "conditions": "10 μM", "description": "as §1"}, "[11]": {"biological_target": "PAK2 (Homo sapiens, UniProt Q13177)", "sequence (Q13177 whole entry, species assumed)": "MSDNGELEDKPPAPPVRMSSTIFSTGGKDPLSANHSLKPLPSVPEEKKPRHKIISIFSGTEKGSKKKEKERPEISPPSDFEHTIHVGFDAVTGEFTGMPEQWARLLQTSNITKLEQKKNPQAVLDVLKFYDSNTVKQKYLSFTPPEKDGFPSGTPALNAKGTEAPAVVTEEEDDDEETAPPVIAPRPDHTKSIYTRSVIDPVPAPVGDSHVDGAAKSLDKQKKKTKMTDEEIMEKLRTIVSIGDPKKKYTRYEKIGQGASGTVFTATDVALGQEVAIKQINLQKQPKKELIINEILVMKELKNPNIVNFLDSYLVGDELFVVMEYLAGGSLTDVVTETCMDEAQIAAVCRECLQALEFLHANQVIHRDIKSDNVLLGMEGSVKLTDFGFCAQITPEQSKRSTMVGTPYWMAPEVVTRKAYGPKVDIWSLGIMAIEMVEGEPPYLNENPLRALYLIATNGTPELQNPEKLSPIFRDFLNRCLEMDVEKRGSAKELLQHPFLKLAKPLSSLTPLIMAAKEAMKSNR", "test": "kinase screen for inhibition or activation", "conditions": "10 μM", "description": "as §1"}, "[12]": {"biological_target": "Src (Homo sapiens, UniProt P12931)", "test": "kinase screen for inhibition or activation", "conditions": "10 μM", "description": "as §1"}, "[13]": {"biological_target": "AurA (Homo sapiens, UniProt O14965)", "test": "kinase screen for inhibition or activation", "conditions": "10 μM", "description": "as §1"}, "[14]": {"biological_target": "InsR (Homo sapiens, UniProt P06213)", "sequence (P06213 28-1382, species assumed)": "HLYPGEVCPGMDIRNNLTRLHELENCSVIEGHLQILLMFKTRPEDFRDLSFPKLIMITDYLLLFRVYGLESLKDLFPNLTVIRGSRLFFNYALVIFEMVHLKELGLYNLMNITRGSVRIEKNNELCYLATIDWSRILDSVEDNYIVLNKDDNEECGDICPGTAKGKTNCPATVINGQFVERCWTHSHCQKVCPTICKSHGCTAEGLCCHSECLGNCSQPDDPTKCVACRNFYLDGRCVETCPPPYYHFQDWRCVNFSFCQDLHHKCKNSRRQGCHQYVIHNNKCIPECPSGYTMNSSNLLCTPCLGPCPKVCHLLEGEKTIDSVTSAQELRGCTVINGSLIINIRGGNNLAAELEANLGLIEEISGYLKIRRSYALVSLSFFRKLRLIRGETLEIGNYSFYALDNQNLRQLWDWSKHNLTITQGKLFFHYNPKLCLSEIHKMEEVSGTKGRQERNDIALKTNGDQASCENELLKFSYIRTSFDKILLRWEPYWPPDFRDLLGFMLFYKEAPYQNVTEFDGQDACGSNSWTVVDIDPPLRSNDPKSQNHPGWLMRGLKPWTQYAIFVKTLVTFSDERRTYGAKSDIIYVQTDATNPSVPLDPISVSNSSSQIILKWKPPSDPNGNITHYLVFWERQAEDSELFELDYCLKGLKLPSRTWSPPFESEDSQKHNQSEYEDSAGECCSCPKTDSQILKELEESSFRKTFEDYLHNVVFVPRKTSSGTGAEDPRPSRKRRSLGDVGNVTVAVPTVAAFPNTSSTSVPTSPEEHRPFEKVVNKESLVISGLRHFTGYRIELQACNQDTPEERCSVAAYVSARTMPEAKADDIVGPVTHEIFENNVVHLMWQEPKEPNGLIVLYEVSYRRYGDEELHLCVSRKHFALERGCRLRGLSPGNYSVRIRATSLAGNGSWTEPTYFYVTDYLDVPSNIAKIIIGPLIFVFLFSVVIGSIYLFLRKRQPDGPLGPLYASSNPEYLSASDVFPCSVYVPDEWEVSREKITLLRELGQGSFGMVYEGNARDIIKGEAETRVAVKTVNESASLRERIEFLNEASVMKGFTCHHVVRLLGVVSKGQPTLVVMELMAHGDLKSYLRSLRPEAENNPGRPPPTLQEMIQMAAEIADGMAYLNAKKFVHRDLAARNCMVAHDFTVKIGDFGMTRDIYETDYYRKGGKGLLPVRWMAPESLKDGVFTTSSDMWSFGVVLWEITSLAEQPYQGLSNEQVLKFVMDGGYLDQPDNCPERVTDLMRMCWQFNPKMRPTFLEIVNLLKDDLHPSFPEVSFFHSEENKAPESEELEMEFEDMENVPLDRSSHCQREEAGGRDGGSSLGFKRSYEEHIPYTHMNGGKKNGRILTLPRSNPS", "test": "kinase screen for inhibition or activation", "conditions": "10 μM", "description": "as §1"}, "[15]": {"biological_target": "Lck (Homo sapiens, UniProt P06239)", "test": "kinase screen for inhibition or activation", "conditions": "10 μM", "description": "as §1"}, "[16]": {"biological_target": "CHK2 (Homo sapiens, UniProt O96017)", "sequence (O96017 whole entry, species assumed)": "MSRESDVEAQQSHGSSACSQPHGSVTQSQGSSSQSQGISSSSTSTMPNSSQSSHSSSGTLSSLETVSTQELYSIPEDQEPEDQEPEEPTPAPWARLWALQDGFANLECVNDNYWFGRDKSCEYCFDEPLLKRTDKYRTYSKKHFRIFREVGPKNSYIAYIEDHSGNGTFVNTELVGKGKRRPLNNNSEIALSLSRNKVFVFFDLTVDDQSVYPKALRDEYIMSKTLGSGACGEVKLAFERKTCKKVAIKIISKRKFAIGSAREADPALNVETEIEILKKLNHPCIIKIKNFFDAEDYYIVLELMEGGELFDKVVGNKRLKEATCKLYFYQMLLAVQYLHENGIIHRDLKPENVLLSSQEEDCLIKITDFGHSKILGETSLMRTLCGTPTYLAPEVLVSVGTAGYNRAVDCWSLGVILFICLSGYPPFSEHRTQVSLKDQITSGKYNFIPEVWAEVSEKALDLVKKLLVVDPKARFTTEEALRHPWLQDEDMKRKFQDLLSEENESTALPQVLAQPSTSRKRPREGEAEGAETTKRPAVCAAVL", "test": "kinase screen for inhibition or activation", "conditions": "10 μM", "description": "as §1"}, "[17]": {"biological_target": "KDR (FLK1, VEGFR2) (Homo sapiens, UniProt P35968)", "test": "kinase screen for inhibition or activation", "conditions": "10 μM", "description": "as §1"}, "[18]": {"biological_target": "FGFR3 (Homo sapiens, UniProt P22607)", "test": "kinase screen for inhibition or activation", "conditions": "10 μM", "description": "as §1"}, "[19]": {"biological_target": "MAPKAP2 (Homo sapiens, UniProt P49137)", "sequence (P49137 whole entry)": "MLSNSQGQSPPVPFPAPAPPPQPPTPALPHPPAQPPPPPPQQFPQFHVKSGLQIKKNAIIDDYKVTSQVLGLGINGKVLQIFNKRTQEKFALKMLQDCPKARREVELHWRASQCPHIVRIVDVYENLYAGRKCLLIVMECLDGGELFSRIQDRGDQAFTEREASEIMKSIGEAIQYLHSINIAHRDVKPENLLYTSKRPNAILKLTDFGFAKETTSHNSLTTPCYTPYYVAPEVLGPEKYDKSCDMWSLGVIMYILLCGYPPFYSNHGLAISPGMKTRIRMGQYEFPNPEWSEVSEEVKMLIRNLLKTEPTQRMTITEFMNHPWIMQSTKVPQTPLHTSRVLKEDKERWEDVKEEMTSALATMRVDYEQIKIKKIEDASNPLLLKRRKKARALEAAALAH", "test": "kinase screen for inhibition or activation", "conditions": "10 μM", "description": "as §1"}, "[20]": {"biological_target": "Akt2 (Homo sapiens, UniProt P31751)", "test": "kinase screen for inhibition or activation", "conditions": "10 μM", "description": "as §1"}, "[21]": {"biological_target": "JNK2 (Homo sapiens, UniProt P45984)", "sequence (P45984 whole entry, species assumed)": "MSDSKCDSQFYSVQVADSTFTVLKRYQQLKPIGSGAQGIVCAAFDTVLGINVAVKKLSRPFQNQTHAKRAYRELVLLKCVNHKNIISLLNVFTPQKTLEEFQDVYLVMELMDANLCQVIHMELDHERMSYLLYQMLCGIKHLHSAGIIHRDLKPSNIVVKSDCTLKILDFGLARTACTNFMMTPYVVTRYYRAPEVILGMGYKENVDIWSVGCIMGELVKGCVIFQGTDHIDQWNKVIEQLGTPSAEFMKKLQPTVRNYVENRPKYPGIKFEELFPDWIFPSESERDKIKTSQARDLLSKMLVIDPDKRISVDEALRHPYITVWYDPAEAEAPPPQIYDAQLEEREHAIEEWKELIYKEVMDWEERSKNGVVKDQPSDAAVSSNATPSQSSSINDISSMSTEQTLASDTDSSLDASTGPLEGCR", "test": "kinase screen for inhibition or activation", "conditions": "10 μM", "description": "as §1"}, "[22]": {"conditions": "Modification 1: Reaction Buffer with 0.1% BSA"}, "[23]": {"conditions": "Modification 2: Reaction Buffer with 1 mM dithiothreitol"}, "[24]": {"conditions": "Modification 3: Reaction Buffer with 0.01% BSA, 1 mM dithiothreitol"}, "[25]": {"conditions": "Modification 4: Reaction Buffer with 0.1% β-mercaptoethanol"}}}
{"compound": "Cc1cccc(Oc2cnc(=O)[nH]c2)c1", "note": "[Compound 102]", "values": [{"measurement": "Fold-Activation", "setting": "[1]; [22]", "value": 1.1, "unit": "fold"}, {"measurement": "Fold-Activation", "setting": "[1]; [23]", "value": 1.2, "unit": "fold"}, {"measurement": "Fold-Activation", "setting": "[1]; [24]", "value": 1.6, "unit": "fold"}, {"measurement": "Fold-Activation", "setting": "[1]; [25]", "value": 2.4, "unit": "fold"}, {"measurement": "Fold-Activation", "setting": "[1]; Reaction Buffer", "value": 1.6, "unit": "fold"}, {"measurement": "% Phosphorylation of Substrate", "setting": "[1]; [22]", "value": 33.6, "unit": "%"}, {"measurement": "% Phosphorylation of Substrate", "setting": "[1]; [23]", "value": 80.9, "unit": "%"}, {"measurement": "% Phosphorylation of Substrate", "setting": "[1]; [24]", "value": 83.4, "unit": "%"}, {"measurement": "% Phosphorylation of Substrate", "setting": "[1]; [25]", "value": 33.3, "unit": "%"}, {"measurement": "% Phosphorylation of Substrate", "setting": "[1]; Reaction Buffer", "value": 16.2, "unit": "%"}, {"measurement": "COMPOUND 102 ACTIVITY (% KINASE ACTIVITY)", "setting": "[2]", "value": 5.08, "unit": "%"}, {"measurement": "COMPOUND 102 ACTIVITY (% KINASE ACTIVITY)", "setting": "[3]", "value": "−0.95", "unit": "%"}, {"measurement": "COMPOUND 102 ACTIVITY (% KINASE ACTIVITY)", "setting": "[4]", "value": 17.35, "unit": "%"}, {"measurement": "COMPOUND 102 ACTIVITY (% KINASE ACTIVITY)", "setting": "[5]", "value": 1.72, "unit": "%"}, {"measurement": "COMPOUND 102 ACTIVITY (% KINASE ACTIVITY)", "setting": "[6]", "value": "−0.3", "unit": "%"}, {"measurement": "COMPOUND 102 ACTIVITY (% KINASE ACTIVITY)", "setting": "[7]", "value": 7.34, "unit": "%"}, {"measurement": "COMPOUND 102 ACTIVITY (% KINASE ACTIVITY)", "setting": "[8]", "value": 11.12, "unit": "%"}, {"measurement": "COMPOUND 102 ACTIVITY (% KINASE ACTIVITY)", "setting": "[9]", "value": "−8.06", "unit": "%"}, {"measurement": "COMPOUND 102 ACTIVITY (% KINASE ACTIVITY)", "setting": "[10]; Lyn (repeat), repeat experiment, activation", "value": 57, "unit": "%"}, {"measurement": "COMPOUND 102 ACTIVITY (% KINASE ACTIVITY)", "setting": "[10]; Lyn (repeat), repeat experiment, activation, listed as COMPOUND 102, 10 µM", "value": 57.11, "unit": "%"}, {"measurement": "COMPOUND 102 ACTIVITY (% KINASE ACTIVITY)", "setting": "[10]; Lyn, first screen, activation", "value": 51, "unit": "%"}, {"measurement": "COMPOUND 102 ACTIVITY (% KINASE ACTIVITY)", "setting": "[10]; Lyn, first screen, activation, listed as COMPOUND 102, 10 µM", "value": 51.05, "unit": "%"}, {"measurement": "COMPOUND 102 ACTIVITY (% KINASE ACTIVITY)", "setting": "[10]; Lyn, third Lyn line of the table", "value": 57, "unit": "%"}, {"measurement": "COMPOUND 102 ACTIVITY (% KINASE ACTIVITY)", "setting": "[11]", "value": 1.55, "unit": "%"}, {"measurement": "COMPOUND 102 ACTIVITY (% KINASE ACTIVITY)", "setting": "[12]", "value": 4.56, "unit": "%"}, {"measurement": "COMPOUND 102 ACTIVITY (% KINASE ACTIVITY)", "setting": "[13]", "value": "−12.21", "unit": "%"}, {"measurement": "COMPOUND 102 ACTIVITY (% KINASE ACTIVITY)", "setting": "[14]", "value": 16.92, "unit": "%"}, {"measurement": "COMPOUND 102 ACTIVITY (% KINASE ACTIVITY)", "setting": "[15]", "value": 6.28, "unit": "%"}, {"measurement": "COMPOUND 102 ACTIVITY (% KINASE ACTIVITY)", "setting": "[16]", "value": "−6.17", "unit": "%"}, {"measurement": "COMPOUND 102 ACTIVITY (% KINASE ACTIVITY)", "setting": "[17]", "value": 0, "unit": "%"}, {"measurement": "COMPOUND 102 ACTIVITY (% KINASE ACTIVITY)", "setting": "[18]", "value": "−1.58", "unit": "%"}, {"measurement": "COMPOUND 102 ACTIVITY (% KINASE ACTIVITY)", "setting": "[19]", "value": "−13.04", "unit": "%"}, {"measurement": "COMPOUND 102 ACTIVITY (% KINASE ACTIVITY)", "setting": "[20]", "value": "−6.83", "unit": "%"}, {"measurement": "COMPOUND 102 ACTIVITY (% KINASE ACTIVITY)", "setting": "[21]", "value": "−4.8", "unit": "%"}]}
